# Literature values as cited in US9151747B1, “Sucralose antibody and immunoassay” (Mercyhurst University, priority 2013, dated 2015).
# Tests used:
# [1] = background statement
# [2] = background statement; remark: listed apart in the source
compound,measurement,setting,value
"OC[C@H]1O[C@H](O[C@]2(CCl)O[C@H](CCl)[C@@H](O)[C@@H]2O)[C@H](O)[C@@H](O)[C@H]1Cl [Sucralose, sucralose]",sweetness relative to table sugar,[1],600 times
same,breakdown by the human body,[2],minimal breakdown
